Data taken from PubChem BioAssay AID1918994 (Molecular Pharmacology Branch, DTP, NCI, 2023).

Tested on: 292921-168-R-J2-PDC complex spheroid growth
Assay: Anticancer human tumor 292921-168-R-J2-PDC patient-derived pancreatic carcinoma cell line growth inhibition [AhR]
Details: for IC50: curve of first compound; for viability, T/C: stronger effect = lower value
Text: Multicellular complex tumor spheroid response to aryl hydrocarbon receptor antagonists in combination with a variety of drugs and investigational agents in selected tumor cell lines
The current study was undertaken to assess response to aryl hydrocarbon receptor antagonists in combination with standard-of-care drugs and investigational agents in solid tumor complex spheroid models. Complex spheroids include a stromal component modeled by human endothelial cells (HUVEC) and fibroblasts modeled by human mesenchymal stem cells (MSCs). The concentration ranges selected for each drug and investigational agent were based upon clinically achievable concentrations if the clinical Cmax of the agent was known.
Compounds. The drugs and investigational agents: BAY 2416964 (NSC825713), GNF351 (NSC835774), CH-223191 (NSC835775), CPI-455 (NSC825282), aza-TdCyd (NSC777586), decitabine (NSC127716), belinostat (NSC758774), entinostat (NSC756642), pevonedistat (NSC761192), tazemetostat (NSC777109), talazoparib (NSC765396), olaparib (NSC753686), selinexor (NSC780203), nedisertib (M3814, NSC802822), bortezomib (NSC756655), venetoclax (NSC766270), doxorubicin (NSC123127), elimusertib (BAY189344, NSC800525), ceralasertib (AZD6738, NSC777638), TAK-243 (NSC785004), alisertib (NSC759677), etoposide (NSC141540), topotecan (NSC609699), eribulin (NSC707389), gemcitabine (NSC613327), carboplatin (NSC241240), cisplatin (NSC119875), and SN-38 (NSC673596) were obtained from the National Cancer Institute (NCI) Developmental Therapeutics Program Chemical Repository (32). The FDA-approved anticancer drug set is available from the Developmental Therapeutics Program at https://dtp.cancer.gov/organization/dscb/obtaining/available plates.htm. […] The stock solutions were prepared in dimethyl sulfoxide (DMSO, Sigma-Aldrich, St. Louis, MO, cat. D2650), except for the platinum compounds which were prepared in saline (Quality Biological, Gaithersburg, MD, cat. 114-055-101), at 800-fold the tested concentration and stored at -70 degrees C prior to their use. All drugs and investigational agents were tested over a range starting from a high concentration at or near the clinical Cmax and decreasing in half-log increments. If the clinical Cmax for an agent had not been determined, the highest concentration tested was 10 microM (Table 1).
Cell Culture. All cells were maintained in an incubator at 37 degrees C and 5% CO2 with 95% humidity. The PDC lines were cultured according to standard operating procedures established by the NCI PDMR (https://pdmr.cancer.gov). Briefly, all PDCs were thawed and cultured in Matrigel-coated flasks prepared with a working solution of 1X Ham's F-12 nutrient mix, without supplementation (Invitrogen, Waltham, MA, cat. 11765054), 100 U/mL penicillin-streptomycin (Invitrogen, cat. 15140122), and 2.5% Matrigel (Corning Inc., Corning, NY, cat. 354248) for the first three passages. All PDCs were cultured in complete DMEM/F-12 media containing advanced DMEM/F-12 (Invitrogen, cat. 12634028), 4.9% defined fetal bovine serum, heat inactivated (HyClone Laboratories Inc., Logan, UT, cat. SH30070.03HI), 389 ng/mL hydrocortisone (Sigma-Aldrich, cat. H4001), 9.7 ng/mL human EGF recombinant protein (Invitrogen, cat. PHG0313), 23.4 microg/mL adenine (Sigma-Aldrich, cat. A2786), 97.3 U/mL penicillin-streptomycin (Invitrogen, cat. 15140122), 1.9 mM L-glutamine (Invitrogen, cat. 25030081), and 9.7 microM Y-27632 dihydrochloride (Tocris Bioscience, Bristol, United Kingdom, cat. 1254). The PDCs were cultured in complete DMEM/F12 media without 10 microM Y-27632 dihydrochloride for at least two passages prior to the screen. The established cell lines NCI-H1341 and […] were cultured in DMEM/F-12, HEPES (Invitrogen, cat. 11330032), 5% defined fetal bovine serum (HyClone Laboratories Inc., cat. SH30070.03), ITS premix universal culture supplement [insulin (5 microg/mL), transferrin (5 microg/mL), and selenious acid (5 ng/mL)] […]

[1] = second compound 0.1 µM, first compound 0.0316 µM
[2] = second compound 0.1 µM, first compound 0.1 µM
[3] = second compound 0.1 µM, first compound 0.316 µM
[4] = second compound 0.1 µM, first compound 1 µM
[5] = second compound 0.316 µM, first compound 0.0316 µM
[6] = second compound 0.316 µM, first compound 0.1 µM
[7] = second compound 0.316 µM, first compound 0.316 µM
[8] = second compound 0.316 µM, first compound 1 µM
[9] = second compound 1 µM, first compound 0.0316 µM
[10] = second compound 1 µM, first compound 0.1 µM
[11] = second compound 1 µM, first compound 0.316 µM
[12] = second compound 1 µM, first compound 1 µM
[13] = second compound 3.16 µM, first compound 0.0316 µM
[14] = second compound 3.16 µM, first compound 0.1 µM
[15] = second compound 3.16 µM, first compound 0.316 µM
[16] = second compound 3.16 µM, first compound 1 µM
[17] = second compound 10 µM, first compound 0.0316 µM
[18] = second compound 10 µM, first compound 0.1 µM
[19] = second compound 10 µM, first compound 0.316 µM
[20] = second compound 10 µM, first compound 1 µM
[21] = second compound 0.1 µM, first compound 0.00316 µM
[22] = second compound 0.1 µM, first compound 0.01 µM
[23] = second compound 0.316 µM, first compound 0.00316 µM
[24] = second compound 0.316 µM, first compound 0.01 µM
[25] = second compound 1 µM, first compound 0.00316 µM
[26] = second compound 1 µM, first compound 0.01 µM
[27] = second compound 3.16 µM, first compound 0.00316 µM
[28] = second compound 3.16 µM, first compound 0.01 µM
[29] = second compound 10 µM, first compound 0.00316 µM
[30] = second compound 10 µM, first compound 0.01 µM
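Further: spheroids exposed to compounds for seven days after three days of growth.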

Compound	IC50 (second compound 0.1 µM)	IC50 (second compound 0.316 µM)	IC50 (second compound 1 µM)	IC50 (second compound 3.16 µM)	IC50 (second compound 10 µM)	viability, T/C [1]	viability, T/C [2]	viability, T/C [3]	viability, T/C [4]	viability, T/C [5]	viability, T/C [6]	viability, T/C [7]	viability, T/C [8]	viability, T/C [9]	viability, T/C [10]	viability, T/C [11]	viability, T/C [12]	viability, T/C [13]	viability, T/C [14]	viability, T/C [15]	other results
COc1cc(Nc2ncc3c(n2)-c2ccc(Cl)cc2C(c2c(F)cccc2OC)=NC3)ccc1C(=O)O + CC(CO)NC(=O)c1cc(-c2ccc(Cl)cc2)nn(-c2cnn(C)c2)c1=O	< 31.6 nM	< 31.6 nM	< 31.6 nM	< 31.6 nM	< 31.6 nM	51%	41.9%	44.8%	40.1%	50.8%	40.1%	44.1%	40.9%	52.5%	40.3%	39.3%	47.9%	45.3%	36.2%	44.3%	viability, T/C (second compound 0.1 µM, first compound 3.16 µM): 40.7%; viability, T/C (second compound 0.1 µM, first compound 10 µM): 31.4%; viability, T/C (second compound 0.316 µM, first compound 3.16 µM): 34.3%; viability, T/C (second compound 0.316 µM, first compound 10 µM): 33.3%; viability, T/C (second compound 1 µM, first compound 3.16 µM): 37.3%; viability, T/C (second compound 1 µM, first compound 10 µM): 30%; viability, T/C [16]: 42%; viability, T/C (second compound 3.16 µM, first compound 3.16 µM): 36.8%; viability, T/C (second compound 3.16 µM, first compound 10 µM): 28.4%; viability, T/C [17]: 38.5%; viability, T/C [18]: 33.4%; viability, T/C [19]: 37.3%; viability, T/C [20]: 38.8%; viability, T/C (second compound 10 µM, first compound 3.16 µM): 32.6%; viability, T/C (second compound 10 µM, first compound 10 µM): 26.4%
CC1COCCN1c1cc(-c2ccnn2C)c2ccnc(-c3ccn[nH]3)c2n1 (stereo not given) + Cc1cncc(-c2nc(NCCc3c[nH]c4ccccc34)c3ncn(C(C)C)c3n2)c1	48 nM	43.4 nM	40.8 nM	32.1 nM	< 3.16 nM	60%	31.8%	22.5%	18.1%	56.8%	32.7%	18.7%	17%	55.2%	30%	18.7%	17.1%	49.7%	25.4%	17.9%	viability, T/C [21]: 87.5%; viability, T/C [22]: 82.6%; viability, T/C [23]: 88.3%; viability, T/C [24]: 78.6%; viability, T/C [25]: 74.5%; viability, T/C [26]: 73%; viability, T/C [27]: 60.3%; viability, T/C [28]: 64.1%; viability, T/C [16]: 17.9%; viability, T/C [29]: 41%; viability, T/C [30]: 48.1%; viability, T/C [17]: 44.9%; viability, T/C [18]: 33.2%; viability, T/C [19]: 25.8%; viability, T/C [20]: 22.2%
Nc1ncn(C2CC(O)C(CO)O2)c(=O)n1 (stereo not given) + CC(CO)NC(=O)c1cc(-c2ccc(Cl)cc2)nn(-c2cnn(C)c2)c1=O	> 1000 nM	> 1000 nM	> 1000 nM	> 1000 nM	> 1000 nM	87.1%	88.8%	80.9%	73.7%	105%	90.8%	85.8%	77.8%	103%	94.5%	86.2%	78.8%	92.4%	76.5%	81.4%	viability, T/C [21]: 102%; viability, T/C [22]: 93.3%; viability, T/C [23]: 101%; viability, T/C [24]: 96.3%; viability, T/C [25]: 97.5%; viability, T/C [26]: 104%; viability, T/C [27]: 94.7%; viability, T/C [28]: 91%; viability, T/C [16]: 69.5%; viability, T/C [29]: 70.3%; viability, T/C [30]: 72.8%; viability, T/C [17]: 71%; viability, T/C [18]: 73%; viability, T/C [19]: 63%; viability, T/C [20]: 62.5%
